Measurements from the supplement of paper PMC10307832.

Columns and labels:
Experiment in all cases: relative viability (nuclei count vs DMSO), 5 days (fraction); higher = more cells survive
Wnt-C59 + Pictilisib = compound: CC1=NC=CC(=C1)C2=CC=C(C=C2)CC(=O)NC3=CC=C(C=C3)C4=CN=CC=C4 [Wnt-C59] + CS(=O)(=O)N1CCN(Cc2cc3nc(-c4cccc5[nH]ncc45)nc(N4CCOCC4)c3s2)CC1 [Pictilisib] (partner 1 µM)
Method in brief: (§1)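 Dosing by pin tool came one day after lung cancer cell lines were seeded in 1536-well plates, using either one drug or a fixed anchor-drug dose plus five library-drug doses (not always all listed) in √10 steps. After 5 days, nuclei were counted on 4× images. Relative viability is treated-well nuclei count divided by vehicle-well nuclei count, and values are medians of duplicate plates.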

Lapatinib + Bortezomib = compound: CS(=O)(=O)CCNCc1ccc(-c2ccc3ncnc(Nc4ccc(OCc5cccc(F)c5)c(Cl)c4)c3c2)o1 [Lapatinib] + CC(C)C[C@H](NC(=O)[C@H](Cc1ccccc1)NC(=O)c1cnccn1)B(O)O [Bortezomib] (partner 0.002 µM)
Method in brief: as §1

Lapatinib + AZD7762 = compound: CS(=O)(=O)CCNCc1ccc(-c2ccc3ncnc(Nc4ccc(OCc5cccc(F)c5)c(Cl)c4)c3c2)o1 [Lapatinib] + NC(=O)Nc1cc(-c2cccc(F)c2)sc1C(=O)N[C@H]1CCCNC1 [AZD7762] (partner 0.2 µM)
Method in brief: as §1

Lapatinib + Pemetrexed = compound: CS(=O)(=O)CCNCc1ccc(-c2ccc3ncnc(Nc4ccc(OCc5cccc(F)c5)c(Cl)c4)c3c2)o1 [Lapatinib] + Nc1nc2[nH]cc(CCc3ccc(C(=O)N[C@@H](CCC(=O)O)C(=O)O)cc3)c2c(=O)[nH]1 [Pemetrexed] (partner 0.2 µM)
Method in brief: as §1

Row | Cell Line | relative viability (Wnt-C59 + Pictilisib; first compound 0.001 µM) | relative viability (Wnt-C59 + Pictilisib; first compound 0.01 µM) | relative viability (Wnt-C59 + Pictilisib; first compound 0.03162 µM) | relative viability (Wnt-C59 + Pictilisib; first compound 0.1 µM) | relative viability (Lapatinib + Bortezomib; first compound 0.06325 µM) | relative viability (Lapatinib + Bortezomib; first compound 0.2 µM) | relative viability (Lapatinib + Bortezomib; first compound 0.6325 µM) | relative viability (Lapatinib + Bortezomib; first compound 2 µM) | relative viability (Lapatinib + AZD7762; first compound 0.06325 µM) | relative viability (Lapatinib + AZD7762; first compound 0.2 µM) | relative viability (Lapatinib + AZD7762; first compound 0.6325 µM) | relative viability (Lapatinib + AZD7762; first compound 2 µM) | relative viability (Lapatinib + Pemetrexed; first compound 0.06325 µM) | relative viability (Lapatinib + Pemetrexed; first compound 0.2 µM) | relative viability (Lapatinib + Pemetrexed; first compound 0.6325 µM) | relative viability (Lapatinib + Pemetrexed; first compound 2 µM) | relative viability (Lapatinib + AZD7762; first compound 0.02 µM) | relative viability (Lapatinib + Pemetrexed; first compound 0.02 µM) | relative viability (Lapatinib + Bortezomib; first compound 0.02 µM)
1 | LC-2-ad | 0.435 | 0.43 | 0.469 | 0.472 | 0.936 | 0.994 | 1.14 | 0.96 | 0.562 | 0.768 | 0.684 | 0.552 | 0.29 | 0.264 | 0.271 | 0.232 | – | – | –
2 | LCLC-97TM1 | 0.23 | 0.231 | 0.211 | 0.187 | – | 0.515 | 0.74 | 0.819 | – | 0.178 | 0.224 | 0.259 | 0.128 | 0.184 | 0.168 | 0.176 | – | – | –
3 | LCLC-103H | 0.663 | 0.62 | 0.634 | 0.651 | 1.03 | 1.13 | 1.06 | 1.04 | 0.575 | 0.791 | 0.836 | 0.727 | 0.437 | 0.47 | 0.494 | 0.425 | 0.61 | 0.558 | –
4 | LOU-NH91 | 0.541 | 0.577 | 0.508 | 0.565 | 0.469 | 0.522 | 0.499 | 0.544 | 0.58 | 0.696 | 0.703 | 0.599 | 0.41 | 0.39 | 0.415 | 0.458 | 0.76 | 0.377 | –
5 | LU99A | 0.309 | 0.317 | 0.316 | 0.321 | 0.932 | 1.15 | 1.15 | 0.94 | 0.217 | 0.363 | 0.388 | 0.329 | 0.161 | 0.223 | 0.178 | 0.182 | 0.329 | 0.203 | 1.05
6 | LXF-289 | 0.767 | 0.774 | 0.853 | 0.794 | 0.931 | 0.981 | 1 | 0.929 | 1.09 | 1.05 | 1.13 | 0.957 | 0.901 | 0.884 | 0.844 | 0.768 | 1.02 | 0.891 | 0.972
7 | NCI-H23 | 0.426 | 0.454 | 0.467 | 0.423 | – | 1.02 | 1.07 | 0.813 | – | 0.216 | 0.232 | 0.154 | – | 0.782 | 0.58 | 0.529 | – | – | –
8 | NCI-H322M | 0.517 | 0.426 | 0.491 | 0.414 | 1.02 | 1.08 | 1.23 | 1.3 | 0.538 | 0.536 | 0.475 | 0.454 | 0.54 | 0.571 | 0.575 | 0.49 | 0.557 | 0.648 | 1.12
9 | NCI-H441 | 0.557 | 0.428 | 0.592 | 0.573 | 0.628 | 0.45 | 0.379 | 0.657 | – | 1.15 | 0.856 | 1.14 | – | 0.248 | 0.231 | 0.248 | 1.17 | 0.305 | –
10 | NCI-H460 | 0.33 | 0.327 | 0.373 | 0.32 | 1.02 | 1.15 | 0.984 | 1.11 | 0.62 | 0.679 | 0.537 | 0.387 | 0.0621 | 0.0581 | 0.0692 | 0.0618 | – | 0.0637 | 1.02
11 | NCI-H596 | 0.43 | 0.437 | 0.381 | 0.421 | 1.04 | 0.964 | 1.03 | 0.776 | 0.878 | 0.939 | 1.1 | 0.819 | 0.505 | 0.531 | 0.504 | 0.494 | – | – | 1.17
12 | NCI-H647 | 0.35 | 0.374 | 0.39 | 0.429 | 0.708 | 1.11 | 1.13 | 0.871 | 0.573 | 0.43 | 0.583 | 0.401 | 0.149 | 0.162 | 0.168 | 0.158 | – | 0.176 | 0.909
13 | NCI-H650 | 0.838 | 0.94 | 0.982 | 0.685 | 0.662 | 0.653 | 0.86 | 0.841 | 0.735 | 1.03 | 1.04 | 0.977 | 0.881 | 0.913 | 1.08 | 0.963 | – | – | –
14 | NCI-H838 | 0.463 | 0.516 | 0.439 | 0.42 | 0.461 | 0.843 | 0.829 | 0.674 | 0.832 | 0.904 | 0.939 | 0.843 | 0.244 | 0.258 | 0.311 | 0.251 | 0.927 | 0.275 | 1.08
15 | NCI-H1355 | 0.486 | 0.325 | 0.38 | 0.393 | 0.954 | 1.13 | 1.2 | 0.573 | 0.627 | 0.72 | 0.753 | 0.549 | 0.93 | 0.948 | 1.06 | 0.889 | 0.674 | 0.833 | –
16 | NCI-H1437 | 0.531 | 0.617 | 0.467 | 0.479 | 0.46 | 0.421 | 0.394 | 0.39 | 1.11 | 1.1 | 1.07 | 1.06 | 0.302 | 0.279 | 0.289 | 0.329 | 1.13 | 0.303 | 0.523
17 | NCI-H1651 | 0.601 | 0.584 | 0.541 | 0.561 | 0.93 | 0.819 | 0.859 | 0.963 | 0.451 | 0.337 | 0.41 | 0.402 | 0.553 | 0.553 | 0.6 | 0.657 | 0.468 | 0.48 | 0.994
